Test results taken from patent EP0867722A2, “Method for measuring interaction between sugar and target” (TAKARA SHUZO CO. LTD., priority 1997, dated 1998).

Experiments:
[1] = Photostability of labeling fluorophores under white fluorescent lamp (residual fluorescence); type: physicochemical; details: 1 µM in 10 mM Tris-HCl buffer, pH 7.5, 25°C, white fluorescent lamp about 4000 lux, 16 hours; ratio of exposed solution to shaded solution
Source text: For the measurement of photostability, therefore, such labeling fluorophores are used. The following seven labeling fluorophores were selected. • 1. 2-Aminopyridine (AP) (Nacalai Tesque Inc.) • 2. […] 8-Amino-2-naphthol (AN) (Aldrich Chemical Company, Inc.) • 4. 5-((5-aminopentyl)thioureidyl)fluorescein (AF) (Molecular Probes Inc.) • 5. 5-Dimethylaminonapnthalene-1-(N-(2-minoethyl))sulfone (AD) (Molecular Probes Inc.) • 6. 2-Aminobenzamide (AB) (Oxford GlycoSystems Ltd.) • 7. 8-Amino-naphthalene-1,3,6-trisulfonic acid (ANTS) (Molecular Probes Inc.)
Each of the above reagents was dissolved in 10 mM Tris-HCl buffer, pH 7.5, to a concentration of 1 µM, and 1 ml of each solution was placed in a test tube of hard glass (size: diameter, 12 mm and length, 120mm) and allowed to stand at 25°C under a white fluorescent lamp. At this time, the illumination intensity in the vicinity of each solution was measured by an illumination photometer to be about 4000 lux. For controls, test tubes containing the same solutions were prepared, but they were shaded with aluminum foil and stored under the same conditions as described above. After 16 hours, the fluorescence of each solution was measured by fluorescent spectrophotometer RF-540 (Shimazu Corp.). The excitation and emission wavelengths used in the measurement of fluorescence of the solutions of each fluorescent substance, and residual fluorescence (i.e., ratio of the relative degree of fluorescence for the exposed solution to the relative degree of fluorescence for the shaded solution) are shown in Table 1.

concanavalin A = molecular target: T1, concanavalin A (Canavalia ensiformis, UniProt P02866); assay: Fluorescence polarization measurement of interaction between fluorescence-labeled sugar fractions and concanavalin A; type: binding; details: 1 µM labeled sugar or fluorophore; no maximum means EC50 impossible to calculate
T1 construct: purchased Honen Oil Co., Ltd
Source text: The interaction between the sugar molecules and the target molecules to be measured is not always highly specific as compared with antigen-antibody reaction. To find the most suitable combination, the degree of interaction should be evaluated. As an index to show the degree of interaction, for example, EC50 can be used, which is a half value of the minimum target concentration giving the maximum degree of fluorescence polarization.
BEACON™ 2000 (PanVera Corp.) was modified so as to be adapted for the detection of pyridylamino-labeled substances. […]
Seven fractions of fluorescence-labeled sugars prepared in the above item 1 were freeze-dried to remove water, acetonitrile and eluents-derived salts, and then used for the subsequent measurement of an interaction. The measurement of the degree of fluorescence polarization was conducted as follows. […]
In each of the eight solutions of concanavalin A in various concentrations, each fluorescence-labeled sugar fraction was dissolved to a concentration of 1 µM. After the dissolution, the solutions were allowed to stand at room temperature for 30 minutes, and the reaction mixtures thus obtained were used each in a volume of 100 µl to measure the degree of fluorescence polarization with a modified apparatus of the BEACON™ system as described in the above item 2, which was equipped with filters for excitation at 310 nm and emission at 390 nm. […]

Residual fluorescence (%) [1] [%]	SMILES	maximum in the degree of fluorescence polarization over the range of concentration of concanavalin A (concanavalin A)
84	Nc1cccc2ccc(O)cc12 [AN, 8-Amino-2-naphthol]	
96	Nc1cc(S(=O)(=O)O)cc2cc(S(=O)(=O)O)cc(S(=O)(=O)O)c12 [ANTS, 8-Amino-naphthalene-1,3,6-trisulfonic acid]	
97	CN(C)c1cccc2c(S(=O)(=O)NCCN)cccc12 [AD, 5-Dimethylaminonapnthalene-1-(N-(2-minoethyl))sulfone]	
17	NCCCCCNC(=S)Nc1ccc2c(c1)C(=O)OC21c2ccc(O)cc2Oc2cc(O)ccc21 [AF, 5-((5-aminopentyl)thioureidyl)fluorescein]	
96	NC(=O)c1ccccc1N [AB, 2-Aminobenzamide]	

SMILES	Residual fluorescence (%) [1] [%]	maximum in the degree of fluorescence polarization over the range of concentration of concanavalin A (concanavalin A)
Nc1ccccn1 [AP, 2-Aminopyridine]	98	no maximum
